The source of these data is patent US11202779B2, “Combinations for the treatment of neoplasms using quiescent cell targeting with EGFR inhibitors” (Felicitex Therapeutics, Inc., priority 2016, dated 2021).

Where two headings read alike, the source gives them in different places.

The test system of one test is SW620 cells. Briefly: FACS analysis of cell cycle distribution by DNA content (propidium iodide), SW620. In kind it is cell-based. The conditions noted are these: 24 hours in FBS− media, AZ191 2.5, 5, 10 μM, Compound I-7 1.25, 2.5, 5 μM. How it is done:
The SW620 cells were cultured and treated as described in Example 1. For propidium iodide (PI) staining, manufacturer's protocol supplied with the Guava Cell Cycle Reagent for Flow Cytometry (EMD Millipore) was followed. The measurements were performed with Guava PCA-96 flow cytometer (EMD Millipore) using the green laser for excitation at 535 nm and monitoring emission at 617 nm.
The SW620 cells were cultured, treated, and analyzed as described in Examples 1. For propidium iodide (PI) staining, manufacturer's protocol supplied with the Guava Cell Cycle Reagent for Flow Cytometry (EMD Millipore) was followed. The measurements were performed with Guava PCA-96 flow cytometer (EMD Millipore) using the green laser for excitation at 535 nm and monitoring emission at 617 nm.
For orientation: A flow cytometer gives signals particle by particle.

The test system of test [1] is DYRK1B. The conditions noted are these: literature value; read-out: inhibits DYRK1B at; cited from earlier work.
The test system of another test is quiescent cancer cells. The conditions noted are these: in vitro, literature; cited from earlier work.
For a further test, the system named is PC9 cells. Briefly: Cell viability assay in 2D cell culture (CellTiter-Glo), PC9. The conditions noted are these: Homo sapiens, PC-9, 96 h. The class given is cell-based. The source says:
(§1) The following cell lines were obtained from ATCC and cultured according to the ATCC recommendations: H1975—non-small cell lung cancer cell line harboring L858R and T790M mutations; HCC827—non-small cell lung cancer cell line with E746-A750 deletion in EGFR TK; PC9—non-small cell lung cancer cell line with E746-A750 deletion in EGFR TK; A549—non-small cell lung cancer cell line with wild type EGFR; PANC1—pancreatic cancer cell line; MiaPaCa-2—pancreatic cancer cell line, and SW620—colon cancer cell line. Cell cultures of these lines were seeded into 6-well plates at 3×10^5−6×10^5 cells/well; the plated number of cells depended on cell size and rate of proliferation, aiming for approximately 50% confluency. After seeding, the cells were allowed to attach for 24 hours while incubated at 37° C. in a humidified 5% CO2 atmosphere, and then treated with compounds for desired amount of time (usually 24 hours) incubating under same conditions. Then the cells were harvested by trypsinization, pooled with the floating cells, washed in PBS, and fixed in 70% ice-cold ethanol overnight. For Acridine Orange (AO) staining, fixed cells were washed once with ice-cold PBS, re-suspended in 100 μL PBS, followed by addition of 200 μL of permeabilizing solution and 600 μL AO staining solution.
(§2) For viability analysis, cells were seeded into 96-well plates at 2×10^3-6×10^3 cells/well; depending on cell size and rate of proliferation aiming for approximately 50% confluency. Cells were allowed to attach for 24 hours incubated at 37° C. in a humidified 5% CO2 atmosphere. The treatments were performed using at least 6 different concentrations of a compound in 1:3 serial dilutions. Before reading the results cells were incubated for 96 hours in 5% CO2 incubator at 37° C. Each treatment was performed in triplicate. Results were analyzed by CellTiter-Glo™ Luminescent Cell Viability Assay (Promega, cat. # G7571) according to the manufacturer's instructions using SpectraMAX Gemini Spectrophotometer (Molecular Devices).

The subject of the next test is A549 cells. Briefly: Cell viability assay in 2D cell culture (CellTiter-Glo), A549. The class given is cell-based. The conditions noted are these: Homo sapiens, A549, 96 h.
Text: as §1, §2
A general note: ATP-based viability assays read luminescence as a measure of living cells.

The test system of another test is PANC1 cells. The experiment in a line: Cell viability assay in 2D cell culture (CellTiter-Glo), PANC1. The class given is cell-based. The conditions noted are these: Homo sapiens, PANC-1, 96 h.
Test [2] relates to H1975 cells. The experiment in a line: Cell viability assay in 2D cell culture (CellTiter-Glo), H1975. The conditions noted are these: Homo sapiens, NCI-H1975, 96 h. The class given is cell-based.
For test [3], the system named is phosphorylated Y1068-EGFR. Briefly: Western blot, EGFR phosphorylation in H1975 cells. In kind it is cell-based. The conditions noted are these: 24 hours treatment. Here is the method:
(§3) For Western Blot analysis cells were seeded into 6-well plates at 5×10^5-9×10^5 cells/well (depending on the cell size and rate of proliferation), allowed to attach for 24 hours, then treated with compounds for 24 hours, and harvested. Immunoblotting was performed using conventional techniques, as described in Cell Signaling Technologies Western Blotting protocol (www.cellsignal.com).
A general note: Immunoblotting shows a protein as a band on a membrane.

Test [4] concerns DYRK1B. The experiment in a line: Western blot, DYRK1B expression in H1975 cells. The class given is cell-based. The conditions noted are these: 24 hours treatment, compared to untreated cells in FBS+ or FBS− medium. Here is the method:
as §3

The test system of a further test is MiaPaCa-2 cells. Briefly: Cell viability assay in 2D cell culture (CellTiter-Glo), MiaPaCa-2. The class given is cell-based. The conditions noted are these: Homo sapiens, MIA PaCa-2, 96 h.
Text: as §1, §2

The test system of test [5] is PC9 human non-small cell lung cancer cells. The conditions noted are these: exposure of PC9 cells, literature; cited from earlier work.
Another test concerns H1975 spheroids. Briefly: Cell viability assay in 3D cell culture (spheroids), H1975. The conditions noted are these: Homo sapiens, NCI-H1975, 168 h, seven days. In kind it is cell-based. Here is the method: Each treatment was performed in triplicate.
Cells were incubated for 2-3 days (depending on the cell line) at 37° C. in a humidified 5% CO2 atmosphere allowing for tight spheroid formation. For the treatment, 50 μL of media was removed from each well and replaced with fresh media with compounds. […] Before reading the results, cells were incubated for the period of 4-10 days in 5% CO2 incubator at 37° C. If the treatment time exceeded 4 days, […] in each well was replaced with fresh media containing the test compound every fourth day. Each treatment was performed in duplicate. […] Prior to analysis, the spheroids were photographed at 50× magnification.

Test [6] deals with H1975 cells. Briefly: FACS analysis of cell cycle distribution (Acridine Orange), H1975. The conditions noted are these: 24 hours. In kind it is cell-based.
Setting [7] is: EGFR inhibitor alone (Compound I-5 / I-7 not present).
Setting [8] is: EGFR inhibitor alone (Compound I-7 not present).
The mark [9] stands for this setting: Compound I-7 present at 2 μM, read-out: EC50.
Where [10] appears, read: Compound I-7 present at 4 μM, read-out: EC50.
The mark [11] stands for this setting: EGFR inhibitor alone (Compound I-5 / I-7 not present), read-out: EC50.
Setting [12] is: 18 nM osimertinib with 5 μM Compound I-7, FBS+ or pre-starved.

Regarding `COc1cc(N2CCN(C)CC2)ccc1Nc1nccc(-c2cn(C)c3cnccc23)n1` [AZ191], the “fraction of cells in quiescent state (G0), based on fraction of cells G0+G1 phase” value with SW620 cells is “no decrease in fraction of cells in quiescent state (G0)”. Moreover, the IC50 in the test on DYRK1B [1] was 17 nM.
Turning to `CCOC(=N)c1nc2ccc3ncnc(Nc4cc(F)c(F)cc4Cl)c3c2s1` [Compound I-7], the “fraction of cells in quiescent state (G0), based on fraction of cells G0+G1 phase” value in the test with SW620 cells is listed as “significant decrease in fraction of cells in quiescent state (G0)”.
As for `COc1ncc2cc(C(=O)Nc3cc(C(=O)NCc4cccc(Cl)c4)ccc3Cl)c(=O)[nH]c2n1` [TC-S 7004], in the test with quiescent cancer cells, the “effectiveness against quiescent cancer cells” value is given as “effective against quiescent cancer cells in vitro”.
Turning to `CN(C)C/C=C/C(=O)Nc1cc2c(Nc3ccc(F)c(Cl)c3)ncnc2cc1O[C@H]1CCOC1` [afatinib], the EC50 was determined as 1.3 nM in the test on PC9 cells (Compound I-7 present at 3 μM); 0.4 nM in the test on PC9 cells (Compound I-7 present at 6 μM); 2.1 nM in the test with PC9 cells (setting [7]); 2600 nM in the test with A549 cells (Compound I-7 present at 3 μM); 1000 nM with A549 cells (Compound I-7 present at 6 μM); 4700 nM in the test on A549 cells (setting [8]). In addition, the EC50 in the test on PANC1 cells (Compound I-7 present at 2 μM) was determined as 1800 nM; with PANC1 cells (Compound I-7 present at 4 μM), 1500 nM; in the test on PANC1 cells (setting [7]), 1900 nM; with H1975 cells [2] (Compound I-7 present at 2 μM), 25.2 nM; with H1975 cells [2] (Compound I-7 present at 4 μM), 8.2 nM; in the test on H1975 cells [2] (setting [8]), 89.4 nM.
Turning to `COc1cc2ncnc(Nc3ccc(F)c(Cl)c3)c2cc1NC(=O)/C=C/CN1CCCCC1` [dacomitinib], the EC50 worked out at 9900 nM with PANC1 cells (setting [9]); 7100 nM in the test with PANC1 cells (setting [10]); 11400 nM in the test with PANC1 cells (setting [11]); 88.6 nM in the test on H1975 cells [2] (Compound I-7 present at 2 μM); 34.8 nM in the test on H1975 cells [2] (Compound I-7 present at 4 μM); 110 nM in the test with H1975 cells [2] (setting [8]). In addition, in test [3], the “EGFR phosphorylation (ph-Y1068 EGFR)” value is given as “suppressed the EGFR phosphorylation”. Also, the “expression of DYRK1B protein” value in the test on DYRK1B [4] is “induced expression of DYRK1B protein similar to or higher than that produced by serum starvation”.
With `C#Cc1cccc(Nc2ncnc3cc(OCCOC)c(OCCOC)cc23)c1` [erlotinib], the EC50 in the test on PC9 cells (Compound I-5 present at 2 μM) was found to be 9.3 nM; with PC9 cells (Compound I-5 present at 4 μM), 3.7 nM; with PC9 cells (setting [7]) it was 17.3 nM; with A549 cells (Compound I-7 present at 3 μM, read-out: EC50) it was 5900 nM; in the test on A549 cells (Compound I-7 present at 6 μM, read-out: EC50), 400 nM; in the test with A549 cells (EGFR inhibitor alone (Compound I-7 not present), read-out: EC50), 10400 nM. Moreover, the EC50 in the test with PANC1 cells (Compound I-5 present at 2.5 μM, read-out: EC50) was over 30000 nM; in the test with PANC1 cells (Compound I-5 present at 5 μM, read-out: EC50) it was 14000 nM; in the test with PANC1 cells (setting [11]), over 30000 nM; with MiaPaCa-2 cells (Compound I-5 present at 2.5 μM), 6400 nM; in the test with MiaPaCa-2 cells (Compound I-5 present at 5 μM), 3500 nM; in the test on MiaPaCa-2 cells (erlotinib alone (Compound I-5 not present)), over 30000 nM. In test [5], the “fraction of cells in G0 (pharmacological quiescence)” value was “significant increase of fraction of cells in G0”.
As to `CS(=O)(=O)CCNCc1ccc(-c2ccc3ncnc(Nc4ccc(OCc5cccc(F)c5)c(Cl)c4)c3c2)o1` [lapatinib], the “fraction of cells in G0 (pharmacological quiescence)” value in test [5] was “significant increase of fraction of cells in G0”.
In the case of `C=CC(=O)Nc1cc(Nc2nccc(-c3cn(C)c4ccccc34)n2)c(OC)cc1N(C)CCN(C)C` [osimertinib], the EC50 was 4600 nM in the test on PANC1 cells (setting [9]); 4500 nM in the test with PANC1 cells (setting [10]); 5300 nM with PANC1 cells (setting [11]); 7.9 nM in the test on H1975 cells [2] (Compound I-7 present at 2 μM); 4.2 nM in the test on H1975 cells [2] (Compound I-7 present at 4 μM); 8.7 nM with H1975 cells [2] (setting [8]). For the same compound, the EC50 with H1975 spheroids (regular growth media (FBS+), Compound I-7 not present) is 0.68 nM; in the test on H1975 spheroids (regular growth media (FBS+), Compound I-7 present at 2.5 μM) it was 0.28 nM; in the test on H1975 spheroids (serum starvation (FBS−), Compound I-7 not present) it was 3.3 nM; in the test on H1975 spheroids (serum starvation (FBS−), Compound I-7 present at 2.5 μM) it was 1 nM. For the same compound, the “fraction of cells in quiescent (G0) state” value in the test on H1975 cells [6] (18 nM osimertinib alone, pre-incubated in FBS+ or pre-starved in FBS− medium) is listed as “even more effective than serum starvation (FBS−) at inducing a large fraction of the cells into the quiescent (G0) state”. Besides, the “apoptotic cells (sub-G0 population)” value with H1975 cells [6] (setting [12]) is “significant increases in apoptotic cells”. Also, the “fraction of cells in G0” value with H1975 cells [6] (setting [12]) is reported as “reduced the fraction of cells in G0”. In [3], the “EGFR phosphorylation (ph-Y1068 EGFR)” value was “suppressed the EGFR phosphorylation”. For the same compound, in the test on DYRK1B [4], the “expression of DYRK1B protein” value is “induced expression of DYRK1B protein similar to or higher than that produced by serum starvation”.
For `C=CC(=O)Nc1cccc(Nc2nc(Nc3ccc(N4CCN(C(C)=O)CC4)cc3OC)ncc2C(F)(F)F)c1` [rociletinib], the EC50 in the test on PANC1 cells (setting [9]) was determined as 9900 nM; with PANC1 cells (setting [10]), 7100 nM; in the test on PANC1 cells (setting [11]), 11400 nM; in the test on H1975 cells [2] (Compound I-7 present at 2 μM), 22.5 nM; in the test on H1975 cells [2] (Compound I-7 present at 4 μM), 14.9 nM; in the test with H1975 cells [2] (setting [8]), 351 nM.

The term EC50 denotes the midpoint of the concentration-response curve.
